According to ChEMBL document CHEMBL3352659, “Indolinone-based acetylcholinesterase inhibitors: synthesis, biological activity and molecular modeling” (Eur J Med Chem, 2014):

How the values were obtained:
[1] = biological target: T1, Acetylcholinesterase (Electrophorus electricus, UniProt O42275); test: Inhibition of electric eel AChE using acetylthiocholine iodide substrate by Ellman method based spectrophotometry
[2] = Selectivity index, ratio of IC50 for equine serum BuChE to IC50 for electric eel AChE
[3] = biological target: Cholinesterase (Equus caballus, UniProt P81908); test: Inhibition of equine serum BuChE using butyrylthiocholine iodide substrate by Ellman method based spectrophotometry
Cholinesterase, sequence (P81908 whole entry): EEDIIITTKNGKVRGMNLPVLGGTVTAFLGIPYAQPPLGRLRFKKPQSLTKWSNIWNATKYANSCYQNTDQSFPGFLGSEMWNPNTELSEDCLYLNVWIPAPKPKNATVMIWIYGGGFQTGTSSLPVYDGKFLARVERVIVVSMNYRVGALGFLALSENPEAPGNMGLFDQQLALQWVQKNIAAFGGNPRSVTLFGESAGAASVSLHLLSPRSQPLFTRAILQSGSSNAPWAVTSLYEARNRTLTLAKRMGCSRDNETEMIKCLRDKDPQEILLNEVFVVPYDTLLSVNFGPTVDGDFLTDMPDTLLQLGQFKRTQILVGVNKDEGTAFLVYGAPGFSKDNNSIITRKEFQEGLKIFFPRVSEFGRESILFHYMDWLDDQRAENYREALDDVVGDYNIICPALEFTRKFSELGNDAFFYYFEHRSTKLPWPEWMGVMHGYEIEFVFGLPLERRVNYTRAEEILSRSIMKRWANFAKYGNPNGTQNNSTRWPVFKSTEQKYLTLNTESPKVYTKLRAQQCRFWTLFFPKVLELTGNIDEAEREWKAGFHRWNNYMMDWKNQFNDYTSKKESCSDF

[4] = biological target: T1, Acetylcholinesterase; test: Mixed type inhibition of electric eel AChE using acetylthiocholine iodide substrate by Lineweaver-Burk plot analysis

T1 sequence (O42275 whole entry): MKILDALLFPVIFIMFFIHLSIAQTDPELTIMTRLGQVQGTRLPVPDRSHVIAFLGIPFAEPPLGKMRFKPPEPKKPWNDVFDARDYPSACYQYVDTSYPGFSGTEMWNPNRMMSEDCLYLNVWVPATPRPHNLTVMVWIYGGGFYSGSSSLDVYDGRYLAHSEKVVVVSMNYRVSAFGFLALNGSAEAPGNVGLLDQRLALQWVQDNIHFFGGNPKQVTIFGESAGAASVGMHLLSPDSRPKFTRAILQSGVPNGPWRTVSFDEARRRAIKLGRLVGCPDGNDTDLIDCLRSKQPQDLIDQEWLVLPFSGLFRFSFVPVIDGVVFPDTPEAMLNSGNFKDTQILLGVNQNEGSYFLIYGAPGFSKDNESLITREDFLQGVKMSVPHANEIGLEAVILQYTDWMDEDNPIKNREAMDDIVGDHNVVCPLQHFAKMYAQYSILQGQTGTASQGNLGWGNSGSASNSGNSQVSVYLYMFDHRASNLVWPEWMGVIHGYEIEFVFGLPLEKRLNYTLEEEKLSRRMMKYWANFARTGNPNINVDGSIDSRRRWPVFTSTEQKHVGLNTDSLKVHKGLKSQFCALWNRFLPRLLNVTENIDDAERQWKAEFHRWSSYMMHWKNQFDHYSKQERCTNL

Compound | IC50 [1] [nM] | Ratio IC50 [2] | IC50 [3] [nM] | Ki [4] [nM]
O=C1Nc2ccccc2/C1=C\c1cc[n+](Cc2ccccc2Br)cc1 | 1.46 | 842 | 1230 | –
COc1cccc(C[n+]2ccc(/C=C3/C(=O)Nc4ccccc43)cc2)c1 | 6.6 | 424 | 2800 | –
O=C1Nc2ccccc2/C1=C\c1cc[n+](Cc2ccc([N+](=O)[O-])cc2)cc1 | 744 | 10 | 7500 | –
COc1ccc(C[n+]2ccc(/C=C3/C(=O)Nc4ccccc43)cc2)cc1 | 677 | 11.7 | 7900 | –
O=C1Nc2ccccc2/C1=C\c1cc[n+](Cc2ccc(CCl)cc2)cc1 | 103 | 9.67 | 1000 | –
O=C1Nc2ccccc2/C1=C\c1cc[n+](Cc2cccc(Cl)c2)cc1 | 4.9 | 276 | 1350 | –
O=C1Nc2ccccc2/C1=C\c1cc[n+](Cc2ccccc2)cc1 | 47.1 | 91.3 | 4300 | –
O=C1Nc2ccccc2/C1=C\c1cc[n+](Cc2cccc(Br)c2)cc1 | 10.3 | 169 | 1740 | –
O=C1Nc2ccccc2/C1=C\c1cc[n+](Cc2c(Cl)cccc2Cl)cc1 | 17 | 88.2 | 1500 | –
O=C1Nc2ccccc2/C1=C\c1cc[n+](Cc2ccc(Cl)cc2)cc1 | 590 | 3.73 | 2200 | –
Cc1cccc(C[n+]2ccc(/C=C3/C(=O)Nc4ccccc43)cc2)c1 | 5.2 | 327 | 1700 | –
O=C1Nc2ccccc2/C1=C\c1cc[n+](Cc2ccc(F)cc2)cc1 | 677 | 4.58 | 3100 | –
O=C1Nc2ccccc2/C1=C\c1cc[n+](Cc2cccc(F)c2)cc1 | 12.8 | 352 | 4500 | –
O=C1Nc2ccccc2/C1=C\c1cc[n+](Cc2ccccc2F)cc1 | 1.25 | 3420 | 4270 | –
O=C1Nc2ccccc2/C1=C\c1cc[n+](Cc2ccccc2[N+](=O)[O-])cc1 | 214 | 7.5 | 1600 | –
O=C1Nc2ccccc2/C1=C\c1cc[n+](Cc2ccc(Br)cc2)cc1 | 653 | 2.9 | 1900 | –
Cc1ccccc1C[n+]1ccc(/C=C2/C(=O)Nc3ccccc32)cc1 | 15.3 | 57.9 | 887 | –
O=C1Nc2ccccc2/C1=C\c1cc[n+](Cc2ccc(Cl)cc2Cl)cc1 | 258 | 9.7 | 2500 | –
O=C1Nc2ccccc2/C1=C\c1cc[n+](Cc2ccc(Cl)c(Cl)c2)cc1 | 29.4 | 112 | 3300 | –
O=C1Nc2ccccc2/C1=C\c1cc[n+](Cc2ccccc2Cl)cc1 | 0.44 | 3110 | 1370 | 1.14
O=C1Nc2ccccc2/C1=C\c1cc[n+](Cc2c(F)cccc2Cl)cc1 | 4.1 | 488 | 2000 | –
